These results are taken from patent US8691758B2, “Inhibitors of serine proteases, particularly HCV NS3-NS4A protease” (Vertex Pharmaceuticals Incorporated, priority 2003, dated 2014).

Structures are written as SMILES.

What is called IC50 is the concentration that inhibits the measured activity by half. Low values mean higher potency, high ones lower potency. What is called Ki is a measure of affinity in units of concentration, obtained from inhibition or displacement. Read a low Ki as higher affinity.

The subject of experiment [1] is Cells containing hepatitis C virus (HCV) replicon. The experiment is described as follows: HCV replicon cell assay (Taqman RT-PCR of HCV RNA). The class given is cell-based. Particulars: concentration at which 50% inhibition of HCV RNA level is observed, 48-hour incubation, 2% FBS. How it is done:
HCV Replicon Cell Assay Protocol
Cells containing hepatitis C virus (HCV) replicon were maintained in DMEM containing 10% fetal bovine serum (FBS), 0.25 mg per ml of G418, with appropriate supplements (media A).
On day 1, replicon cell monolayer was treated with a trypsin:EDTA mixture, removed, and then media A was diluted into a final concentration of 100,000 cells per ml wit. 10,000 cells in 100 ul were plated into each well of a 96-well tissue culture plate, and cultured overnight in a tissue culture incubator at 37° C.
On day 2, compounds (in 100% DMSO) were serially diluted into DMEM containing 2% FBS, 0.5% DMSO, with appropriate supplements (media B). The final concentration of DMSO was maintained at 0.5% throughout the dilution series.
Media on the replicon cell monolayer was removed, and then media B containing various concentrations of compounds was added. Media B without any compound was added to other wells as no compound controls.
Cells were incubated with compound or 0.5% DMSO in media B for 48 hours in a tissue culture incubator at 37° C. At the end of the 48-hour incubation, the media was removed, and the replicon cell monolayer was washed once with PBS and stored at −80° C. prior to RNA extraction.
Culture plates with treated replicon cell monolayers were thawed, and a fixed amount of another RNA virus, such as Bovine Viral Diarrhea Virus (BVDV) was added to cells in each well. RNA extraction reagents (such as reagents from RNeasy kits) were added to the cells immediately to avoid degradation of RNA. Total RNA was extracted according the instruction of manufacturer with modification to improve extraction efficiency and consistency. Finally, total cellular RNA, including HCV replicon RNA, was eluted and stored at −80° C. until further processing.
A Taqman real-time RT-PCR quantification assay was set up with two sets of specific primers and probe. One was for HCV and the other was for BVDV. Total RNA extractants from treated HCV replicon cells was added to the PCR reactions for quantification of both HCV and BVDV RNA in the same PCR well. Experimental failure was flagged and rejected based on the level of BVDV RNA in each well. The level of HCV RNA in each well was calculated according to a standard curve run in the same PCR plate. The percentage of inhibition or decrease of HCV RNA level due to compound treatment was calculated using the DMSO or no compound control as 0% of inhibition. The IC50 (concentration at which 50% inhibition of HCV RNA level is observed) was calculated from the titration curve of any given compound.
For orientation: In antiviral work, replicon cells carry a viral genome segment that copies itself.

Experiment [2] deals with HCV NS3-NS4A protease (tNS3 with KK4A) (Hepatitis C virus genotype 1a, UniProt P27958). The experiment is described as follows: HCV Ki assay (HPLC microbore separation of 5AB substrate and products). Particulars: 25 nM tNS3, 25 μM KK4A, 25 μM 5AB substrate, 20 min at 30 C. The class given is biochemical. How it is done: HPLC Microbore Method for Separation of 5AB Substrate and Products
Sequence of HCV NS3-NS4A protease (tNS3 with KK4A) (P27958 1658-1711): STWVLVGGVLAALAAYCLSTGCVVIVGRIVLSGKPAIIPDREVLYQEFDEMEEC
Sequence of HCV NS3-NS4A protease (tNS3 with KK4A) (P27958 1027-1208): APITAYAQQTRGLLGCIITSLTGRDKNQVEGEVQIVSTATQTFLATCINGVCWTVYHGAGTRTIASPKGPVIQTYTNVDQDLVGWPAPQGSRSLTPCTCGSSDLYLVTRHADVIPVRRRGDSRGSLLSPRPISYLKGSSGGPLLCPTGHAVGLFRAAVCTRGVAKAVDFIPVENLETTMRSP
• NH2-Glu-Asp-Val-Val-(alpha)Abu-Cys-Ser-Met-Ser-Tyr-COOH
A stock solution of 20 mM 5 AB (or concentration of your choice) was made in DMSO w/0.2M DTT. This was stored in aliquots at −20 C.
Buffer: 50 mM HEPES, pH 7.8; 20% glycerol; 100 mM NaCl
Total assay volume was 100 μL
The buffer, KK4A, DTT, and tNS3 were combined; distributed 78 μL each into wells of 96 well plate. This was incubated at 30 C for ˜5-10 min.
2.5 μL of appropriate concentration of test compound was dissolved in DMSO (DMSO only for control) and added to each well. This was incubated at room temperature for 15 min.
Initiated reaction by addition of 20 μL of 250 μM 5AB substrate (25 μM concentration is equivalent or slightly lower than the Km for 5 AB). • Incubated for 20 min at 30 C. • Terminated reaction by addition of 25 μL of 10% TFA • Transferred 120 μL aliquots to HPLC vials
Separated SMSY product from substrate and KK4A by the following method:
Microbore Separation Method:
• Instrumentation: Agilent 1100 • Degasser G1322A • Binary pump G1312A • Autosampler G1313A • Column thermostated chamber G1316A • Diode array detector G1315A • Column: • Phenomenex Jupiter; 5 micron C18; 300 angstroms; 150×2 mm; P/O 00F-4053-B0 • Column thermostat: 40 C • Injection volume: 100 μL • Solvent A=HPLC grade water+0.1% TFA • Solvent B=HPLC grade acetonitrile+0.1% TFA
• Stop time: 17 min • Post-run time: 10 min.

For `CCC[C@H](NC(=O)[C@@H]1CC2(CN1C(=O)[C@@H](NC(=O)[C@@H](NC(=O)c1[nH]c(C)c(C)c1C(C)=O)C1CCCCC1)C(C)(C)C)SCCCS2)C(=O)C(=O)NC1CC1` [Compound 1a, 2-(2-{2-[(3-acetyl-4,5-dimethyl-1H-pyrrole-2-carbonyl)-amino]-2-cyclohexyl-acetylamino}-3,3-dimethyl-butyryl)-6,10-dithia-2-aza-spiro[4.5]decane-3-carboxylic acid(1-cyclopropylaminooxalyl-butyl)-amide], the IC50 in experiment [1] was under 500 nM. The compound also had a Ki in experiment [2] of under 500 nM.

`CCC[C@H](NC(=O)[C@@H]1CC2(CN1C(=O)[C@@H](NC(=O)[C@@H](NC(=O)c1cnccn1)C1CCCCC1)C(C)(C)C)SCCCS2)C(=O)C(=O)NC1CC1` [Compound 2a, 2-(2-{2-cyclohexyl-2-[(pyrazine-2-carbonyl)-amino]-acetylamino}-3,3-dimethyl-butyryl)-6,10-dithia-2-azaspiro[4.5]decane-3-carboxylic acid(1-cyclopropylaminooxalyl-butyl)-amide] gave an IC50 in experiment [1] of under 500 nM. In experiment [2], the Ki is under 500 nM.

For the compound `CCC[C@H](NC(=O)[C@@H]1CC2(CN1C(=O)[C@@H](NC(=O)[C@@H](NC(=O)c1cnccn1)C1CCCCC1)C(C)(C)C)SCCCS2)C(=O)C(N)=O` [Compound 3a], the IC50 in experiment [1] is under 500 nM. In experiment [2], the Ki was under 500 nM.

For `CCC[C@H](NC(=O)[C@@H]1CC2(CN1C(=O)[C@@H](NC(=O)[C@@H](NC(=O)c1[nH]c(C)c(C)c1C(C)=O)C1CCCCC1)C(C)(C)C)SCCCS2)C(=O)C(N)=O` [Compound 4a], the IC50 in experiment [1] is under 500 nM. Moreover, in experiment [2], the Ki was under 500 nM.

On to `CCC[C@@H](NC(=O)[C@@H]1CC2(CN1C(=O)[C@@H](NC(=O)[C@@H](NC(=O)c1cnccn1)C1CCCCC1)C(C)(C)C)SCCCS2)C(=O)C(=O)NC1CC1` [Compound 5a], for which the Ki in experiment [2] was under 500 nM.

With `CCCC(NC(=O)[C@@H]1CC2(CN1C(=O)[C@@H](NC(=O)[C@@H](NC(=O)c1cnccn1)C1CCCCC1)C(C)(C)C)SCCCS2)C(=O)C(=O)NC1CC1` (stereo partly drawn) [Compound 6a], the Ki in experiment [2] is under 500 nM.

As to `CCC[C@H](NC(=O)[C@@H]1CC2(CN1C(=O)[C@@H](NC(=O)[C@@H](NC(=O)c1cnccn1)C1CCCCC1)C(C)(C)C)SCCS2)C(=O)C(=O)NC1CC1` [Compound 7a], in experiment [1], the IC50 is under 500 nM. The compound further yielded a Ki in experiment [2] of under 500 nM.
